Assay results reported in US20080207673A1, “Method for Treating Cancer, Coronary, Inflammatory and Macular Disease, Combining the Modulation of Zinc-and/or Copper Dependent Proteins” (priority 2005, published 2008).

Assays:
HCV RNA Replicons = experiment: HCV RNA replicon antiviral activity testing (luciferase); format: cell-based, Hepatitis C virus; settings: for inhibition at 20 µM: Hepatitis C virus, 20 micromolar, read-out: Antiviral Activity (luciferase, percent inhibition of virus control)
Huh7 ET = experiment: Cytotoxicity in the HCV replicon cell line (actively dividing cells); format: cell-based; settings: single high test concentration, 20 micromolar
Description: The cell line used was Huh7 ET.

Aβ (1-40) = target: T1, Aβ (1-40) (Homo sapiens, UniProt P05067); experiment: Thioflavin T fluorometric assay of metal-ion induced Aβ aggregation; format: biochemical; settings: test compound 10 μg/ml, 24 hours
T1 construct: A 5 mg/ml stock solution of Aβ (1-40) (delivered from Bachem (CH)); purchased Bachem (CH)
Experimental: A 5 mg/ml stock solution of Aβ (1-40) (delivered from Bachem (CH)) was freshly prepared before each experiment by dissolving the lyophilized peptide in 0.01 M HCl, followed by subsequent dilution 1.1 with 0.01 M NaOH to yield a neutral pH. Aliquot of Aβ (1-40) were diluted in PBS (pH 7.4) to 100 [mu]M and incubated at a total volume of 30 μ/l for 24 hours at room temperature. For co-incubation experiments, the indicated concentrations of metal ions and/or aliquot of test compounds were added. The test compounds were added to a final molar concentration of 10 μg/ml.
The amyloid formation was quantified by a thioflavin T fluorometric assay. Thioflavin binds specifically to amyloid and this introduces a shift in its emission spectrum and a fluorescent signal proportional to the amount of amyloid is formed. After incubation, Aβ (1-40) peptides were added to PBS (pH 6.0) and 3 μM thioflavin T in a final volume of 1 ml. Fluorescence was monitored at excitation 454 nm and emission 482 nm using a Fluoroscan II fluorometer (Molecular devices, UK). A time scan of fluorescence was performed and three values after the decay reached a plateau (around 5 minutes) were averaged after subtracting the background fluorescence of 3 μM thioflavin T. For co-incubation experiments, fluorescence of test compound alone was determined. Samples were run in triplicate.
It was studied whether the two compounds had any effect on metal-ion catalysed Aβ aggregation, especially the aggregation caused by Zn and Cu.

PC12 cells = experiment: MTT reduction, Aβ (25-35) induced toxicity in PC12 cells; format: cell-based, Rat; settings: 10 μg phanquinone per ml
Experimental: Aβ (25-35) was delivered by Bachem (CH) or Sigma (USA) and dissolved in phosphate buffered saline (PBS) at pH 7, 4, 2 hours prior to application.
Rat PC12 pheochromocytoma cells were grown in Dulbecco's modified Eagle's medium (DMEM) containing 1% penicillin-streptomycin, 5% fetal calf serum and 10% horse serum in humidified incubator with 5% CO2.
PC12 cells were plated on 96-wells microtiter plates in 100 μl of the appropriate medium. After 24 hours the indicated concentrations of Aβ (25-35) peptide was added alone or together with phanquinone in the designated concentrations. Incubation continued for 24 hours. Following incubation, MTT reduction was measured using a commercially available assay according to the manufacturer's (Boehringer Mannheim) instructions. Assay values obtained by vehicle alone were defined as 100%.
MTT is a substrate for intracellular and plasma membrane oxidoreductases and has been widely used to measure reductions of cell redox activity.
To test the effect of phanquinone on Aβ (25-35) induced toxicity in PC12 cells, PC12 cells were exposed to Aβ (25-35) peptide concentrations ranging from 0 to 10 μM. In the absence of phanquinone (i.e. only vehicle added) Aβ (25-35) produced a dose-dependent inhibition of MTT reduction. […]

hepatitis B (HBV) = experiment: NIH hepatitis B screening; format: cell-based, hepatitis B virus; settings: negative because of cytotoxicity of the cell line used
Description: The HBV research is run by the University of Georgetown (Dr. Brent Korba). The results with HBV were negative at this point because of cytotoxicity of the cell line used.

[1] = brain; cited from earlier work
[2] = cited from earlier work
MMP-1 = target: T2, MMP-1 (Homo sapiens, UniProt P03956); experiment: MMP enzyme assay, fluorometric; format: biochemical
T2 sequence (P03956 100-469): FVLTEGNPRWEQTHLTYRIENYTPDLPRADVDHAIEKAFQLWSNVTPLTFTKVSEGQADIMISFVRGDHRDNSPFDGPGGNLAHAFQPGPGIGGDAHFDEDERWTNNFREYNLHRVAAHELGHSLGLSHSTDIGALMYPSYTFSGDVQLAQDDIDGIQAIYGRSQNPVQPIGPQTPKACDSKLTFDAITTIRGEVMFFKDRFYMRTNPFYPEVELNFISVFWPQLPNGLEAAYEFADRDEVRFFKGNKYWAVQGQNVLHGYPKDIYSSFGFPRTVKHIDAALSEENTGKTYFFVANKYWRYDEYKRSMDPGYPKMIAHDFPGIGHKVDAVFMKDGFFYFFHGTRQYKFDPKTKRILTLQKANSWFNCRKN
Experimental: (§1) An enzyme assay was conducted with five of the enzymes belonging to the MMP group. Specifically, the assay was conducted for MMP-1, MMP-2, MMP-3, MMP-7, and MMP-9 at various concentrations.
(§2) A test substrate of Mca-Pro-Leu-Gly-Leu-Dpa-Ala-Arg-NH2 was subsequently added to obtain a concentration of 25 μM. MMP-1 was incubated for 2 hours at 37EC, MMP-2 was incubated for 3 hours at 25EC, MMP-3 was incubated for 90 min at 37EC. MMP-7 was incubated for 90 min at 37EC, and MMP-9 was incubated for 2 hours at 25 degrees Celsius. The activity of the enzymes was measured by fluorometric quantisation of Mca-Pro-Leu-Gly-OH.

MMP-2 = target: T3, MMP-2 (Homo sapiens, UniProt P08253); experiment: MMP enzyme assay, fluorometric; format: biochemical
T3 sequence (P08253 110-660): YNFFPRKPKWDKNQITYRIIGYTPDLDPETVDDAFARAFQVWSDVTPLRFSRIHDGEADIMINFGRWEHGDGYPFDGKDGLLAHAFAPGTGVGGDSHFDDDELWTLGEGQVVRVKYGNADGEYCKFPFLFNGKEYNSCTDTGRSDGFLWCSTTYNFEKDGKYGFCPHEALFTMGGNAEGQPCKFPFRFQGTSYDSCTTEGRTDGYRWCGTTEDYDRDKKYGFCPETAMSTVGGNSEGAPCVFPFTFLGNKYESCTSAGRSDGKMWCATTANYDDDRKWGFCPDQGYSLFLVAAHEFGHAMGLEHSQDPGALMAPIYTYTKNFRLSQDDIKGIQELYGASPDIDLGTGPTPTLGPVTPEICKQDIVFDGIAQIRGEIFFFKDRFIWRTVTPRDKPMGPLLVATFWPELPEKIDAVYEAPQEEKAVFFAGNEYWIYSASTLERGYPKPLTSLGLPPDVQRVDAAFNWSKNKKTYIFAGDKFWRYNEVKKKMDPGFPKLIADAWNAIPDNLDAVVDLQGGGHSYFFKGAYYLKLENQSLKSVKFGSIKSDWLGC
Experimental: as §1, §2

MMP-3 = MMP-3 (Homo sapiens, UniProt P08254); experiment: MMP enzyme assay, fluorometric; format: biochemical
Experimental: as §1, §2

MMP-7 = target: T4, MMP-7 (Homo sapiens, UniProt P09237); experiment: MMP enzyme assay, fluorometric; format: biochemical
T4 sequence (P09237 95-267): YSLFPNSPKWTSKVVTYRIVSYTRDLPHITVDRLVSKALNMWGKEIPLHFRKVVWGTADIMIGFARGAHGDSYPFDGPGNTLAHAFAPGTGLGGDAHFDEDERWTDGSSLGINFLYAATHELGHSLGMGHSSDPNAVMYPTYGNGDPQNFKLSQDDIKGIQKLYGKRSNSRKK
Experimental: as §1, §2

MMP-9 = MMP-9 (Homo sapiens, UniProt P14780); experiment: MMP enzyme assay, fluorometric; format: biochemical
Experimental: as §1, §2

[3] = cited from earlier work; remark: listed apart in the source
[4] = single high test concentration, Huh7 ET

T1 sequence (P05067 672-711 limits assumed): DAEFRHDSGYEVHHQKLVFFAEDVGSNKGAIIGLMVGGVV
MMP-3, sequence (P08254 100-477, species assumed): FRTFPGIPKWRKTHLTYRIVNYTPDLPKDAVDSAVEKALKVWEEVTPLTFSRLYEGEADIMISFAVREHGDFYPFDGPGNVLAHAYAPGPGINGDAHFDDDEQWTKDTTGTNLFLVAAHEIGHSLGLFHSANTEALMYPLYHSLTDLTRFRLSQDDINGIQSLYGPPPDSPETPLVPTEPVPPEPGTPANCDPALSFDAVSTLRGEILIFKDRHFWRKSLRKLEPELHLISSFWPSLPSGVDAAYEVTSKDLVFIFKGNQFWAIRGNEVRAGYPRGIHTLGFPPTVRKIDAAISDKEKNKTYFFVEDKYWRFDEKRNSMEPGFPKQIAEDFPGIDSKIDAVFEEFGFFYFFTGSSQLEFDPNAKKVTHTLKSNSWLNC
MMP-9, sequence (P14780 94-707, species assumed): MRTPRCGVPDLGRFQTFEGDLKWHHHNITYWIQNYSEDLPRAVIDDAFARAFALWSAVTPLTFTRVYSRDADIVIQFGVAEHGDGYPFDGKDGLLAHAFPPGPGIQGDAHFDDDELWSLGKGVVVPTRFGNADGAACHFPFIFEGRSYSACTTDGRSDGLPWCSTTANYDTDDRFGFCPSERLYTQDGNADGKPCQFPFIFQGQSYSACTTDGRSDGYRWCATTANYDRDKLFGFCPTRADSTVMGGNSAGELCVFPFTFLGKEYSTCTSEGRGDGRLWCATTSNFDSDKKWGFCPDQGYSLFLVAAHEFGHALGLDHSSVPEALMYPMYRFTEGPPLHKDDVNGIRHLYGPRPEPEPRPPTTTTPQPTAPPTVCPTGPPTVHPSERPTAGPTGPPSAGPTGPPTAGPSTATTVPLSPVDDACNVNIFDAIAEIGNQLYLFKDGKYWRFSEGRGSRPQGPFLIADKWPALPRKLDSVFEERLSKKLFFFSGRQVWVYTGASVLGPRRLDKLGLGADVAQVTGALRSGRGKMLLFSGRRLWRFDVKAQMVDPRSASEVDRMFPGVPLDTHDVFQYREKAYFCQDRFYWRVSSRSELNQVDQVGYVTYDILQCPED

Compound: O=C1C(=O)c2ncccc2-c2cccnc21 [Phanquinone, 4,7-phenanthroline-5,6-dione]
- inhibition at 20 µM (HCV RNA Replicons; [4]): 83.2%
- activity against HCV RNA replicons (HCV RNA Replicons; retest with dose response curve, Huh7 ET): no activity
- Comments (screening verdict) (HCV RNA Replicons; [4]): Toxic
- Selectivity Index (HCV RNA Replicons; [4]): <1
- Cytotoxicity (actively dividing cells, percent cell control) (Huh7 ET): 10.5%
- reduction of Cu-induced aggregation of Aβ (1-40) (Aβ (1-40)): 50-60%
- reduction of Zn-induced aggregation of Aβ (1-40) (Aβ (1-40)): approximately 10%
- inhibition of MTT reduction by Aβ (25-35) (PC12 cells; Aβ 10 μM, 24 hours): around 10%
- effect on the toxic effect of Aβ (25-35) (PC12 cells; Aβ as high as 1 μM): completely counteracted
- results with HBV (hepatitis B (HBV)): negative
- ability of copper chelation compared to clioquinol [1]: three times more pronounced
- adverse effect on the nervous system ([2]; in vivo): no evidence
- deaths, fetal malformations, drug interactions or carcinogenicity related to treatment ([2]; in vivo): no reports
- tolerability ([2]; most often 200-400 mg/day for 7 to 10 days): well tolerated

Compound: Oc1c(I)cc(Cl)c2cccnc12 [Clioquinol, 5-chloro-7-iodo-8-hydroxyquinoline]
- inhibition at 20 µM (HCV RNA Replicons; [4]): 82.3%
- selectivity index S150 (HCV RNA Replicons; retesting dose response): over 4.8
- selectivity index S190 (HCV RNA Replicons; retesting dose response): 14
- Comments (screening verdict) (HCV RNA Replicons; [4]): Potentially active
- Cytotoxicity (actively dividing cells, percent cell control) (Huh7 ET): 73.3%
- reduction of Cu-induced aggregation of Aβ (1-40) (Aβ (1-40)): approximately 30%
- reduction of Zn-induced aggregation of Aβ (1-40) (Aβ (1-40)): more than 60%
- inhibition at 100 µM (MMP-1): 12%
- inhibition at 100 µM (MMP-2): 28%
- inhibition at 1000 µM (MMP-2): 26%
- inhibition at 10000 µM (MMP-2): 101%
- inhibition at 100 µM (MMP-3): 7%
- inhibition at 100 µM (MMP-7): 20%
- inhibition at 100 µM (MMP-9): 19%
- results with HBV (hepatitis B (HBV)): negative
- solubility in water [3]: Practically insoluble in water
